Results taken from patent US12590123B2, “Compounds and methods for treating cancer, viral infections, and allergic conditions” (Washington University, priority 2019, dated 2026).

Key:
Format in all cases: biochemical
matriptase = target: T1, matriptase (Homo sapiens, UniProt Q9Y5Y6); experiment: Fluorescent kinetic enzyme assay of matriptase activity (Boc-QAR-AMC); conditions: Table 2; read-out: Matriptase (IC50 nM)
T1 construct: purchased R&D Systems 3946-SE-010
T1 sequence (Q9Y5Y6 615-855 limits assumed): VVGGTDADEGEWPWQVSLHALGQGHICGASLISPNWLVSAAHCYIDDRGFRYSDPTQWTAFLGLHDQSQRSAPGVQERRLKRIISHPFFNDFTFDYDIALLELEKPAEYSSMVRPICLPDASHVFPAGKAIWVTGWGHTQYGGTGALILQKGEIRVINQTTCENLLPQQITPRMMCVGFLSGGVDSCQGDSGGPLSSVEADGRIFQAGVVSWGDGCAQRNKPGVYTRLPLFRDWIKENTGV

recombinant thrombin = recombinant thrombin (Homo sapiens, UniProt P00734); experiment: Chromogenic kinetic enzyme assay of thrombin (S2238); conditions: Table 2; chromogenic assay; read-out: Thrombin* (IC50 nM)
Factor Xa = Factor Xa (Homo sapiens, UniProt P00742); experiment: Chromogenic kinetic enzyme assay of Factor Xa (S2222); conditions: Table 2; chromogenic assay; read-out: Factor Xa* (IC50 nM)
Chain of Factor Xa (P00742 235-488 limits assumed): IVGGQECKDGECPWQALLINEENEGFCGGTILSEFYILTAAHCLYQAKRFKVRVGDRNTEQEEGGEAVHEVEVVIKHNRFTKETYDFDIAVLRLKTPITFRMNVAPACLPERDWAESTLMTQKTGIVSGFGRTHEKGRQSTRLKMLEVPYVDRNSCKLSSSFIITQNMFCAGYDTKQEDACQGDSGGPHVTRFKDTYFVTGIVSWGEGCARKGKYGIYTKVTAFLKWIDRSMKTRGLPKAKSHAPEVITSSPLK
Chain of Factor Xa (P00742 41-179 partner limits assumed): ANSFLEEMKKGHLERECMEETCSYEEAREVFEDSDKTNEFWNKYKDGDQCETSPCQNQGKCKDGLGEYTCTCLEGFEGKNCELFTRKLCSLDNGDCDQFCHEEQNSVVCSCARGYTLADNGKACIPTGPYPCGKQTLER

## CC(=O)N[C@H]1CC(=O)NCCCC[C@@H](C(=O)N[C@@H](CCCNC(=N)N)C(=O)c2nc3ccccc3s2)NC(=O)[C@H](Cc2ccccc2)NC1=O [VD3112, (3S,6S,14S)-6-acetamido-N—((S)-1-(benzo[d]thiazol-2-yl)-5-guanidino-1-oxopentan-2-yl)-3-benzyl-2,5,8-trioxo-1,4,9-triazacyclotetradecane-14-carboxamide]
matriptase
  IC50: 3.4 nM
Recombinant thrombin
  IC50: 1090 nM
Factor Xa
  IC50: 1530 nM
